Data from patent US10696692B2, “Amido-benzyl sulfone and sulfoxide derivates” (Forma TM, LLC, priority 2012, dated 2020).

Key:
[1] = biological target: NAMPT (Homo sapiens (Human), UniProt P43490); assay: Assay 1: Biochemical Inhibition Assay (NAMPT enzymatic reaction, NMN quantified by mass spectrometry); settings: read-out: Biochemical (IC50);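 note: recombinant His-tagged human NAMPT preincubated with compound 15 min, then reacted 30 min at rt with 1 µM NAM, 100 µM PRPP, 2.5 mM ATP, NMN product read by RapidFire MS, normalized to L-Cystathionine internal standard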
[2] = tested on: A2780 cells; assay: Assay 2: In-Vitro Cell Proliferation Assay (A2780 cells, SRB readout, 72 hours); type: cell-based; settings: Homo sapiens, A2780, 72 h, A2780 cells, 72 hours, SRB; read-out: Cell Proliferation (IC50);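 note: viable cells counted via sulforhodamine B staining, absorbance at 570 nm, after 72 h exposure at 37 °C, DMSO 0.1% as control, media-only background subtracted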

Sequence of NAMPT (P43490 whole entry): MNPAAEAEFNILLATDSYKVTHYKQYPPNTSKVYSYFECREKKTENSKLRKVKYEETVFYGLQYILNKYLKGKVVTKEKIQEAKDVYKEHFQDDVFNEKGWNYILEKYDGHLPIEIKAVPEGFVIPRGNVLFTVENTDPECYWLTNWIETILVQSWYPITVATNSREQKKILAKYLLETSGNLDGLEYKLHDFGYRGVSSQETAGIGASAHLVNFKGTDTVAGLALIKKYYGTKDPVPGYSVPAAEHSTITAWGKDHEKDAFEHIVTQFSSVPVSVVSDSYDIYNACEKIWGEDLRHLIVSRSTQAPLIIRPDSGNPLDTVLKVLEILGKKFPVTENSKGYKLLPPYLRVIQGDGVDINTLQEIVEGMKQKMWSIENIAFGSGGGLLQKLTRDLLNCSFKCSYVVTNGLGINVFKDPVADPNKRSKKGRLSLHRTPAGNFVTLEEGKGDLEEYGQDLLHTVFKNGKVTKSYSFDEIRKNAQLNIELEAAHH

| Structure (SMILES) | IC50 [1] | IC50 [2] |
| --- | --- | --- |
| COCCN1CCN(S(=O)(=O)c2ccc(CNC(=O)c3cnc4[nH]ncc4c3)cc2)CC1 [Example 173, 1H-Pyrazolo[3,4-b]pyridine-5-carboxylic acid 4-[4-(2-methoxy-ethyl)-piperazine-1-sulfonyl]-benzylamide] | 183 nM | 86.2 nM |
| O=C(NCc1ccc(S(=O)(=O)N2CCC(F)(F)C2)cc1)c1cnc2[nH]ncc2c1 [Example 175, 1H-Pyrazolo[3,4-b]pyridine-5-carboxylic acid 4-(3,3-difluoro-pyrrolidine-1-sulfonyl)-benzylamide] | 65.2 nM | 127 nM |
| CC(C)(C)OC(=O)N1CCC2(CCCN2S(=O)(=O)c2ccc(CNC(=O)c3ccc4nccn4c3)cc2)CC1 [Example 185, 1-(4-{[(Imidazo[1,2-a]pyridine-6-carbonyl)-amino]-methyl}-benzenesulfonyl)-1,8-diaza-spiro[4.5]decane-8-carboxylic acid tert-butyl ester] | 283 nM | 118 nM |
| CC(C)CN1CCC([S+]([O-])c2ccc(CNC(=O)c3cnc4[nH]ncc4c3)cc2)CC1 (stereo not drawn) [Example 190, N-[[4-[(1-isobutyl-4-piperidyl)sulfinyl]phenyl]methyl]-1H-pyrazolo[3,4-b]pyridine-5-carboxamide] | 130 nM | 23 nM |
| CC(C)CN1CCC([S+]([O-])c2ccc(CNC(=O)c3cc4cnccc4[nH]3)cc2)CC1 (stereo not drawn) [Example 191, N-[[4-[(1-isobutyl-4-piperidyl)sulfinyl]phenyl]methyl]-1H-pyrrolo[3,2-c]pyridine-2-carboxamide] | 26.3 nM | 5.6 nM |
| CN1CCC2(C1)CN(S(=O)(=O)c1ccc(CNC(=O)c3cc4ccncc4o3)cc1)C2 [Example 197, N-[[4-[(6-methyl-2,6-diazaspiro[3.4]octan-2-yl)sulfonyl]phenyl]methyl] furo[2,3-c]pyridine-2-carboxamide] | 2.83 nM | 16.8 nM |
| O=C(NCc1ccc(S(=O)(=O)C2CCNCC2)cc1)c1cc2ccncc2s1 [Example 204, N-[[4-(4-piperidylsulfonyl)phenyl]methyl]thieno[2,3-c] pyridine-2-carboxamide] | 66 nM | 137 nM |
| CC(=O)N1CCC(S(=O)(=O)c2ccc(CNC(=O)c3cc4ccncc4o3)cc2)CC1 [Example 207, N-[[4-[(1-acetyl-4-piperidyl)sulfonyl]phenyl]methyl]furo[2,3-c]pyridine-2-carboxamide] | 29.3 nM | 25 nM |
| O=C(NCc1ccc(S(=O)(=O)C2CCN(CC(F)(F)F)CC2)cc1)c1cnc2[nH]ncc2c1 [Example 208, N-[[4-[[1-(2,2,2-trifluoroethyl)-4-piperidyl]sulfonyl]phenyl]methyl]-1H-pyrazolo[3,4-b]pyridine-5-carboxamide] | 47.7 nM | 10.8 nM |
| O=C(NCc1ccc(S(=O)(=O)C2CCN(CC(F)(F)F)CC2)cc1)c1cc2cnccc2[nH]1 [Example 211, N-[[4-[[1-(2,2,2-trifluoroethyl)-4-piperidyl]sulfonyl]phenyl]methyl]-1H-pyrrolo[3,2-c]pyridine-2-carboxamide] | 15.4 nM | 3.23 nM |
| O=C(NCc1ccc(S(=O)(=O)C2CCN(CC(F)(F)F)CC2)cc1)c1cc2ccncc2o1 [Example 212, N-[[4-[[1-(2,2,2-trifluoroethyl)-4-piperidyl]sulfonyl]phenyl]methyl]furo[2,3-c]pyridine-2-carboxamide] | 13.5 nM | 5.35 nM |
| O=C(NCc1ccc(S(=O)(=O)N2CCC3(CNC3)C2)cc1)c1ccc2nccn2c1 [Example 215, N-[[4-(2,6-diazaspiro[3.4]octan-6-ylsulfonyl)phenyl]methyl] imidazo[1,2-a]pyridine-6-carboxamide] | 81.5 nM | 166 nM |
| CN1CCC2(C1)CN(S(=O)(=O)c1ccc(CNC(=O)c3ccc4nccn4c3)cc1)C2 [Example 216, N-[[4-[(7-methyl-2,7-diazaspiro[3.4]octan-2-yl)sulfonyl]phenyl]methyl] imidazo[1,2-a]pyridine-6-carboxamide] | 30.4 nM | 13.7 nM |
| O=C(NCc1ccc(S(=O)(=O)N2CCC3(CCNC3=O)C2)cc1)c1ccc2nccn2c1 (stereo not drawn) [Example 217, N-[[4-[(1-oxo-2,7-diazaspiro[4.4]nonan-7-yl)sulfonyl]phenyl]methyl] imidazo[1,2-a]pyridine-6-carboxamide] | 16 nM | 10.1 nM |

Further lines, results first:

| IC50 [1] | IC50 [2] | Structure (SMILES) |
| --- | --- | --- |
| 39.8 nM | 42.2 nM | CC(=O)N1CCC(S(=O)(=O)c2ccc(CNC(=O)c3ccc4nccn4c3)cc2)CC1 [Example 171, Imidazo[1,2-a]pyridine-6-carboxylic acid 4-(1-acetyl-piperidine-4-sulfonyl)-benzylamide] |
| 7.7 nM | 31.1 nM | CC(C)CN1CCC([S+]([O-])c2ccc(CNC(=O)c3cnc4nccn4c3)cc2)CC1 (stereo not drawn) [Example 188, N-[[4-[(1-isobutyl-4-piperidyl)sulfinyl]phenyl]methyl]imidazo[1,2-a]pyrimidine-6-carboxamide] |
| 308 nM | 452 nM | O=C(NCc1ccc(S(=O)(=O)C2CCOCC2)cc1)c1cnc2[nH]ncc2c1 [Example 198, N-[(4-tetrahydropyran-4-ylsulfonylphenyl)methyl]-1H-pyrazolo[3,4-b]pyridine-5-carboxamide] |
| 8.65 nM | 185 nM | O=C(NCc1ccc(S(=O)(=O)C2CCOCC2)cc1)c1cnc2nccn2c1 [Example 199, N-[(4-tetrahydropyran-4-ylsulfonylphenyl)methyl] imidazo[1,2-a]pyrimidine-6-carboxamide] |
| 34.5 nM | 14.2 nM | O=C(NCc1ccc(S(=O)(=O)C2CCOCC2)cc1)c1ccc2nccn2c1 [Example 200, N-[(4-tetrahydropyran-4-ylsulfonylphenyl)methyl] imidazo[1,2-a]pyridine-6-carboxamide] |
| 669 nM | 731 nM | O=C(NCc1ccc(S(=O)(=O)C2CCNCC2)cc1)c1cnc2[nH]ncc2c1 [Example 203, N-[[4-(4-piperidylsulfonyl)phenyl]methyl]-1H-pyrazolo[3,4-b]pyridine-5-carboxamide] |
| 59.2 nM | 21.1 nM | O=C(NCc1ccc(S(=O)(=O)C2CCN(C3CCOCC3)CC2)cc1)c1cnc2[nH]ncc2c1 [Example 206, N-[[4-[(1-tetrahydropyran-4-yl-4-piperidyl)sulfonyl]phenyl]methyl]-1H-pyrazolo[3,4-b]pyridine-5-carboxamide] |
| 3.72 nM | 8.84 nM | O=C(NCc1ccc(S(=O)(=O)C2CCN(CC(F)(F)F)CC2)cc1)c1cnc2nccn2c1 [Example 209, N-[[4-[[1-(2,2,2-trifluoroethyl)-4-piperidyl]sulfonyl]phenyl]methyl]imidazo[1,2-a]pyrimidine-6-carboxamide] |
| 17.7 nM | 3.47 nM | O=C(NCc1ccc(S(=O)(=O)C2CCN(CC(F)(F)F)CC2)cc1)c1ccc2nccn2c1 [Example 210, N-[[4-[[1-(2,2,2-trifluoroethyl)-4-piperidyl)sulfonyl]phenyl]methyl]imidazo[1,2-a]pyridine-6-carboxamide] |
| 13.6 nM | 4.73 nM | O=C(NCc1ccc(S(=O)(=O)C2CCN(C3CCOCC3)CC2)cc1)c1ccc2nccn2c1 [Example 214, N-[[4-[(1-tetrahydropyran-4-yl-4-piperidyl)sulfonyl]phenyl]methyl]imidazo[1,2-a] pyridine-6-carboxamide] |
